Assay results published in paper PMC9469100, “Turning Nonselective Inhibitors of Type I Protein Arginine Methyltransferases into Potent and Selective Inhibitors of Protein Arginine Methyltransferase 4 through a Deconstruction–Reconstruction and Fragment-Growing Approach” (Journal of Medicinal Chemistry, 2022).
Where two headings read alike, the source gives them in different places. Each block holds one compound with its values, some of them ahead of it.

How the values were obtained:
ASH1L = molecular target: T1, ASH1L (Homo sapiens, UniProt Q9NR48); experiment: HotSpot KMT activity assay, ASH1L; format: biochemical
T1 construct: ASH1L (residues 2046–2330, with an N-terminal His-tag); His (N); purchased Reaction Biology Corporation
Experimental: (§1) Then, ^3H-SAM (final concentration 1 μM) was delivered into the reaction mixture to initiate the reaction. After incubation for 60 min at 30 °C, the reaction mixture was delivered to filter-paper for detection (as assessed by scintillation). […] No inhibitor control (DMSO) was considered as 100% enzyme activity. Data were analyzed using Excel and GraphPad Prism 6.0 software (GraphPad Software Inc., San Diego, CA). Values obtained for each compound are mean ± SD determined for two separate experiments.

[1] = Parallel artificial membrane permeability assay (PAMPA); format: in vitro ADME; details: phosphate buffer pH 7.4, donor 0.2 mM, 24 h at room temperature
Experimental: A donor solution (0.2 mM) was prepared by diluting 20 mM dimethyl sulfoxide (DMSO) compound stock solution using phosphate buffer (pH 7.4, 0.01 M). Filters were coated with 5 μL of a 1% (w/v) dodecane solution of L-α-phosphatidylcholine. Donor solution (150 μL) was added to each well of the filter plate. To each well of the acceptor plate, 300 μL of solution (5% DMSO in phosphate buffer) was added. […] The sandwich was incubated for 24 h at room temperature under gentle shaking. After the incubation time, the sandwich plates were separated, and 250 μL of the acceptor plate was transferred to a UV quartz microtiter plate and measured by UV spectroscopy, using a Multiskan GO microplate spectrophotometer (Thermo Fisher Scientific) at 250–500 nm at a step of 5 nm. Reference solutions (250 μL) were prepared diluting the sample stock solutions to the same concentration as that with no membrane barrier.

SETD8 = molecular target: T2, SETD8 (Homo sapiens, UniProt Q9NQR1); experiment: HotSpot KMT activity assay, SETD8; format: biochemical; details: 10-dose mode, 3-fold dilution starting at 100 µM; read-out: ref. cmpd. IC50 (µM), SETD8
T2 construct: SETD8 (residues 190–352, C-terminus); N-terminal His-tag; His (N); purchased Reaction Biology Corporation
Experimental: as §1

[2] = molecular target: T3, human PRMT4 (full length) (Homo sapiens, UniProt Q86X55); experiment: SPR binding to immobilized PRMT4; details: for koff / kon: immobilized PRMT4; for kon: read-out: kon; for τR: in vitro residence time, τ = 1/koff
T3 construct: Full-length recombinant PRMT4 (Active motif, # 81107); purchased Active motif # 81107
T3 sequence (Q86X55 1-608): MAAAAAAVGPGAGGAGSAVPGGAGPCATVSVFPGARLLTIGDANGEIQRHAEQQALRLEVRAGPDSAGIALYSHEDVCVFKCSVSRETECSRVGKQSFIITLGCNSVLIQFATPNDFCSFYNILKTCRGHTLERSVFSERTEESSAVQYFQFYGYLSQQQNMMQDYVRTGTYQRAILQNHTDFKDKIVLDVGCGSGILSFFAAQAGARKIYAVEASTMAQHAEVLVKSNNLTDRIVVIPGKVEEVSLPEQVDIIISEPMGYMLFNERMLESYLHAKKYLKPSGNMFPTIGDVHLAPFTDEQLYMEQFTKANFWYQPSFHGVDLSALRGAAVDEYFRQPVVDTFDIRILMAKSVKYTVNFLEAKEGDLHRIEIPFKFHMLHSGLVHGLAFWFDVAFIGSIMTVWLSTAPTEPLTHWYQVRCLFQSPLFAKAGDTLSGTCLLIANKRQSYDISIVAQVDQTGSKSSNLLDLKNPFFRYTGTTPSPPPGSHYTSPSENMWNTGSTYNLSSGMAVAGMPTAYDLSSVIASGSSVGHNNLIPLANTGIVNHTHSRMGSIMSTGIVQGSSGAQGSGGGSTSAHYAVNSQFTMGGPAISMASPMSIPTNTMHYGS
Experimental: To this aim, human PRMT4 (full length) was covalently immobilized on a sensor chip surface using an amine-coupling approach, and the three compounds were injected at different concentrations over the protein surface. To reduce false positives from detergent-sensitive, nonspecific aggregation-based binding, detergents (0.05% Tween-20) were added to the running buffer in all experiments.
SPR experiments were performed on a Biacore T200 biosensor (Cytiva). PBS buffer (phosphate-buffered saline, pH 7.4) supplemented with 0.05% Tween-20 was used as the running buffer. […] One flow cell was left empty for background subtractions. […] Each compound was tested in […], prepared starting from 640 to 10 nM. Binding experiments were performed at 25 °C by using a flow rate of 30 μL/min, with 90 s monitoring of association and 90 s monitoring of dissociation. Regeneration of the surfaces was performed, when necessary, by a 10 s injection of 5 mM NaOH. […] The corrected sensorgrams for each compound were fitted simultaneously using a 1:1 Langmuir model to obtain equilibrium dissociation constants (KD) and kinetic dissociation (koff) and association (kon) constants.

PRMT3 = PRMT3 (Homo sapiens, UniProt O60678); experiment: Radioisotope-based filter-binding (HotSpot) assay, PRMT3
Experimental: (§2) Then, ^3H-SAM (final concentration 1 μM) was delivered into the reaction mixture to initiate the reaction. After incubation for 60 min at 30 °C, the reaction mixture was delivered to filter paper for detection (as assessed by scintillation). Data were analyzed using Excel and GraphPad Prism 6.0 software (GraphPad Software Inc., San Diego, CA) for IC50 curve fits using sigmoidal dose vs response-variable slope (four parameters) equations.

PRMT4 = molecular target: T4, PRMT4 (Homo sapiens, UniProt Q86X55); experiment: Radioisotope-based filter-binding (HotSpot) assay, PRMT4
T4 sequence (Q86X55 2-608): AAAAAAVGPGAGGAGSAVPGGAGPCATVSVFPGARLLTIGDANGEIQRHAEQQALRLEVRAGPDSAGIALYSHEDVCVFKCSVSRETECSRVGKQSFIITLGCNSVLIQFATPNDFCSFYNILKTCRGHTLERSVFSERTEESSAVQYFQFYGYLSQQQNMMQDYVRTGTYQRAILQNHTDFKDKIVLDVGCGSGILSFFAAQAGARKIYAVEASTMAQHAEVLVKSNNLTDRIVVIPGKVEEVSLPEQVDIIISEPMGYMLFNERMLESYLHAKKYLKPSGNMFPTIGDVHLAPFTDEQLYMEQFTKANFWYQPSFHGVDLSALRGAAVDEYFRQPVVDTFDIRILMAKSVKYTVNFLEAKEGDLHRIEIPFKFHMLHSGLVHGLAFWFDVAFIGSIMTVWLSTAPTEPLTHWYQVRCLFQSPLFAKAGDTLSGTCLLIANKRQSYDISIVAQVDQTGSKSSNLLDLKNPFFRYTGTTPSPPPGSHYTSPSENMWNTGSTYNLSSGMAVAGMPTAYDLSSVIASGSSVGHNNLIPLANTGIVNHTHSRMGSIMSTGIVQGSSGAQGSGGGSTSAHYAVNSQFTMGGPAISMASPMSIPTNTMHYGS
Experimental: as §2

PRMT5/MEP50 complex = PRMT5/MEP50 complex (Homo sapiens, UniProt O14744); experiment: Radioisotope-based filter-binding (HotSpot) assay, PRMT5
Experimental: as §2

PRMT6 = PRMT6 (Homo sapiens, UniProt Q96LA8); experiment: Radioisotope-based filter-binding (HotSpot) assay, PRMT6
Experimental: as §2

PRMT7 = molecular target: T5, PRMT7 (Homo sapiens, UniProt Q9NVM4); experiment: Radioisotope-based filter-binding (HotSpot) assay, PRMT7
T5 sequence (Q9NVM4 2-692): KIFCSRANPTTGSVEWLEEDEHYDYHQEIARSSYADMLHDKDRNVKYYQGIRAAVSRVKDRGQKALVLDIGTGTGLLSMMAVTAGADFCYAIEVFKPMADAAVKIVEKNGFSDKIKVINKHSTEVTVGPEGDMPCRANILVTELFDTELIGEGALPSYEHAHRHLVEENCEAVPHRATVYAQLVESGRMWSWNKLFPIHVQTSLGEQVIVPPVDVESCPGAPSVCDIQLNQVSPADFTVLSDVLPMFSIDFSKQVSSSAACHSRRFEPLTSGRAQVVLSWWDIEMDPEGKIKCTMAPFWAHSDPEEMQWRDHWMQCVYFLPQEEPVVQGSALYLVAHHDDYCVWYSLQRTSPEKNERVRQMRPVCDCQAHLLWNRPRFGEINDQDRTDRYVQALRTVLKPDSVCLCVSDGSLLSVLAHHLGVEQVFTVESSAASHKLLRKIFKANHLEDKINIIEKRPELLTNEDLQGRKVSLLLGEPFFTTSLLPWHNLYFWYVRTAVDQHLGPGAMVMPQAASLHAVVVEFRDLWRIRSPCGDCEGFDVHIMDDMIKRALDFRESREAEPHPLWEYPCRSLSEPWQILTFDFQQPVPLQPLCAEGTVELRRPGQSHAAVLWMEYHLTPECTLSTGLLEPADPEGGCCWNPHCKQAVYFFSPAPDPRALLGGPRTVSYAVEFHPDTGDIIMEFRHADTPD
Experimental: as §2

ΔN(1–60)-PRMT8 = ΔN(1–60)-PRMT8 (Homo sapiens, UniProt Q9NR22); experiment: Radioisotope-based filter-binding (HotSpot) assay, PRMT8
Experimental: as §2

[3] = on increasing the linker between 4-hydroxy-2-naphthoate and guanidine (values equal the ratio to the IC50 of 12c)
[4] = IC50 (μM) PRMT7, radioisotope-based filter assay, 5 μM GST-GAR, 1 μM 3H-SAM
[5] = read-out: IC50 (μM) PRMT3, radioisotope-based filter assay, 5 μM histone H4, 1 μM 3H-SAM
[6] = read-out: IC50 (μM) PRMT5, radioisotope-based filter assay, 5 μM histone H2A, 1 μM 3H-SAM
[7] = read-out: IC50 (μM) PRMT6, radioisotope-based filter assay, 5 μM GST-GAR, 1 μM 3H-SAM

PRMT3, sequence (O60678 2-531): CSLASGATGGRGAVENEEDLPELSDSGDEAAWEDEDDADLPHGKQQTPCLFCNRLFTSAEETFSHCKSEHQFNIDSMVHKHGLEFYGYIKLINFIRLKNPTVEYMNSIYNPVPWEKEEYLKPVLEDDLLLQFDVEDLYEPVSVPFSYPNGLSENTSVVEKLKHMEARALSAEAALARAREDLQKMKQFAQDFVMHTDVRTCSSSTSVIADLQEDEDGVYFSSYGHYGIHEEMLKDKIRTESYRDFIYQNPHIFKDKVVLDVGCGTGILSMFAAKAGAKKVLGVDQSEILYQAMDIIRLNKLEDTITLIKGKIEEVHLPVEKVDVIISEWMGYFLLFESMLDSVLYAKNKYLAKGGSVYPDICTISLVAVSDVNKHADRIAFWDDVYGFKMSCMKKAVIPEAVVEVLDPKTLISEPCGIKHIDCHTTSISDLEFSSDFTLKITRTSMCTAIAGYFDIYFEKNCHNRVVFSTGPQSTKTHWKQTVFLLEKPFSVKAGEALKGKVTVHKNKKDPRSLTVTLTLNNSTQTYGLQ
PRMT5/MEP50 complex, sequence (O14744 2-637): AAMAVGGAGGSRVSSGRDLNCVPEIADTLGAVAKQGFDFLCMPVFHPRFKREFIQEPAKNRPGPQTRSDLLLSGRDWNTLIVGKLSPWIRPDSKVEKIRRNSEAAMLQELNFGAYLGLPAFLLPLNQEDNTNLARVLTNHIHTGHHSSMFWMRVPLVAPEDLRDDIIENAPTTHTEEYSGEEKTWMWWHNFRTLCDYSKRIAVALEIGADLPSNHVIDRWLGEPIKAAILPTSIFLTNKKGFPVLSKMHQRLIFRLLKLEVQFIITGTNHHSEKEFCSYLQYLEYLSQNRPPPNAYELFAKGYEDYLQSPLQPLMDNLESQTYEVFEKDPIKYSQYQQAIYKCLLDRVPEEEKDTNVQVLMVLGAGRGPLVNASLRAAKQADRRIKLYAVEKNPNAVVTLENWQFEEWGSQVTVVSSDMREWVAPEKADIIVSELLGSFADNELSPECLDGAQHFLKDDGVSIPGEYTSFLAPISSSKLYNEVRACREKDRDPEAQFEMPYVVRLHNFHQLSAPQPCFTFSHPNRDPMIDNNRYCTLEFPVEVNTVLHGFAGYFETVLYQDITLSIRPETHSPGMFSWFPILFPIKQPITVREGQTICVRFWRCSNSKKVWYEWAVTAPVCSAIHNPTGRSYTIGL
PRMT5/MEP50 complex, sequence (Q9BQA1 2-342 partner limits assumed): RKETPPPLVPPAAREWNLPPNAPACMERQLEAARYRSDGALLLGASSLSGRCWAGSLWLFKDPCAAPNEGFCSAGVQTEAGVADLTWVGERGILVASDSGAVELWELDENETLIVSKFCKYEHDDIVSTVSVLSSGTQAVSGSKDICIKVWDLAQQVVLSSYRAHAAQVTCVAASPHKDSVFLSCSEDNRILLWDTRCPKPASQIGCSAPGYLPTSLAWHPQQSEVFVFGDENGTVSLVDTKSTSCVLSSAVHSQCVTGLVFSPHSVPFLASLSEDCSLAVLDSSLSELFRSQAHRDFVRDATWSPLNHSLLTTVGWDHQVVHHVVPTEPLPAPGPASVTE
PRMT6, sequence (Q96LA8 2-375): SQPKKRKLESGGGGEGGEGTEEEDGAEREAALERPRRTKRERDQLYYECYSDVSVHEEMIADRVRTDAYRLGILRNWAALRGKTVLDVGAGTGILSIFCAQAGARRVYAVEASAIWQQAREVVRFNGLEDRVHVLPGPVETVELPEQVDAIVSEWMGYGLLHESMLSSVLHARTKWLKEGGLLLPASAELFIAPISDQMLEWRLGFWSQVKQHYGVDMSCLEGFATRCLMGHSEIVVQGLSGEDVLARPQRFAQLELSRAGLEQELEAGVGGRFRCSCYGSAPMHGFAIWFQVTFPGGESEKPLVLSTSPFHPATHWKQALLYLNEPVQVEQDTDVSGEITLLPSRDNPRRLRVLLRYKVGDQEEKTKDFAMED
ΔN(1–60)-PRMT8, sequence (Q9NR22 61-394, stated change not applied): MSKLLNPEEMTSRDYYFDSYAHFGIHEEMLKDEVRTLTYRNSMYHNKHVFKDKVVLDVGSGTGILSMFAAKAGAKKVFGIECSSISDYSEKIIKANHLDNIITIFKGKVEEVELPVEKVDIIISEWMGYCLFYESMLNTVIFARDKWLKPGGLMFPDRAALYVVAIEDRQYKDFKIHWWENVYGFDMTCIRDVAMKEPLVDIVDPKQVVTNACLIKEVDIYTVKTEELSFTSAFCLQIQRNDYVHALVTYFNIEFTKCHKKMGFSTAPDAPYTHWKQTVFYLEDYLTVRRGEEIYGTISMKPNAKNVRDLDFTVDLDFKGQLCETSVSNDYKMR
T2 sequence (Q9NQR1 231-393): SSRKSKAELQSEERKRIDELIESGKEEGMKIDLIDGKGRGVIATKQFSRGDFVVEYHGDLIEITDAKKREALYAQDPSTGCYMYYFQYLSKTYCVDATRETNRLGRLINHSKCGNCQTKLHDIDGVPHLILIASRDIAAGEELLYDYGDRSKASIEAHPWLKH

SMILES: CN1C(=O)[C@@]23C[C@]4([C@]56C[C@@]78SS[C@@](CO)(C(=O)N7[C@H]5Nc5ccccc56)N(C)C8=O)c5ccccc5N[C@@H]4N2C(=O)[C@]1(CO)SS3 [chaet, chaetocin, reference compound]
- IC50 (ASH1L): 0.14 µM

- Papp at 24 h, 0.2 mM [1]: 6 ×10⁻⁶ cm/s
SMILES: CC(C)NCC(O)COc1cccc2ccccc12 (stereo not shown) [propranolol, reference compound]

- IC50 (SETD8): 0.186 µM
SMILES: Cc1ccc(NC2=CC(=O)c3sc(C)nc3C2=O)cc1 [ryuv, ryuvidine, reference compound]

SMILES: COC(=O)c1cc(O)c2cc(NC(=O)NCCCCCCNC(=N)NC[C@H]3O[C@@H](n4cnc5c(N)ncnc54)[C@H](O)[C@@H]3O)ccc2c1 [12d, Methyl 6-(3-(6-(3-(((2R,3S,4R,5R)-5-(6-Amino-9H-purin-9-yl)-3,4-dihydroxytetrahydrofuran-2-yl)methyl)guanidino)hexyl)ureido)-4-hydroxy-2-naphthoate]
- Kd [2]: 2.8 µM
- koff ([2]; SPR): 0.76 s⁻¹
- kon ([2]; SPR): 270000 M⁻¹ s⁻¹
- τR [2]: 1.31 s
- IC50 (PRMT3; IC50 (μM) PRMT3, radioisotope-based filter assay, 5 μM histone H4, 1 μM 3H-SAM): 12.2 µM
- IC50 (PRMT3; IC50 PRMT3 (Figure 5 heatmap), radioisotope-based filter assay): 12.2 µM
- IC50 (PRMT4; IC50 (μM) PRMT4, radioisotope-based filter assay, 5 μM histone H3, 1 μM 3H-SAM): 0.068 µM
- IC50 (PRMT4; IC50 PRMT4 (Figure 5 heatmap), radioisotope-based filter assay): 0.061 µM
- gain in the inhibitory activity against PRMT4 (PRMT4; [3]): 6.2 fold
- IC50 (PRMT5/MEP50 complex): 2.6 µM
- gain in the inhibitory activity against PRMT5 (PRMT5/MEP50 complex; [3]): 19.8 fold
- IC50 (PRMT6): 47 µM
- IC50 (PRMT7; [4]): 0.41 µM
- IC50 (PRMT7; IC50 PRMT7 (Figure 5 heatmap), radioisotope-based filter assay): 0.413 µM

- IC50 (PRMT3; [5]): 57.2 µM
- IC50 (PRMT5/MEP50 complex; [6]): 52.1 µM
- IC50 (PRMT6; [7]): 72.8 µM
- IC50 (PRMT7; [4]): 0.3 µM
- IC50 (PRMT7; read-out: IC50 PRMT7 (Figure 5 heatmap), radioisotope-based filter assay): 0.315 µM
- IC50 (ΔN(1–60)-PRMT8; read-out: IC50 PRMT8 (Figure 5 heatmap)): 8.29 µM
SMILES: COC(=O)c1cc(O)c2cc(NC(=O)NCCCNC(=N)NC[C@H]3O[C@@H](n4cnc5c(N)ncnc54)[C@H](O)[C@@H]3O)ccc2c1 [12a, Methyl 6-(3-(3-(3-(((2R,3S,4R,5R)-5-(6-Amino-9H-purin-9-yl)-3,4-dihydroxytetrahydrofuran-2-yl)methyl)guanidino)propyl)ureido)-4-hydroxy-2-naphthoate]

- koff ([2]; SPR): 0.015 s⁻¹
- Kd ([2]; SPR, immobilized PRMT4, 25 °C, KD from ratio koff/kon): 2.3 µM
- kon ([2]; SPR): 6520 M⁻¹ s⁻¹
- τR [2]: 66.7 s
- IC50 (PRMT3; [5]): 43.4 µM
- IC50 (PRMT4; read-out: IC50 (μM) PRMT4, radioisotope-based filter assay, 5 μM histone H3, 1 μM 3H-SAM): 2.14 µM
- IC50 (PRMT4; read-out: IC50 PRMT4 (Figure 5 heatmap), radioisotope-based filter assay): 2.14 µM
- IC50 (PRMT5/MEP50 complex; [6]): 76.7 µM
- IC50 (PRMT6; [7]): > 100 µM
- IC50 (PRMT7; read-out: IC50 (μM) PRMT7, radioisotope-based filter assay, 5 μM GST-GAR, 1 μM 3H-SAM): 0.55 µM
- IC50 (ΔN(1–60)-PRMT8; read-out: IC50 (μM) PRMT8, 5 μM histone H4, 1 μM 3H-SAM): 18.7 µM
SMILES: COC(=O)c1cc(O)c2cc(NC(=O)NCCCCNC(=N)NC[C@H]3O[C@@H](n4cnc5c(N)ncnc54)[C@H](O)[C@@H]3O)ccc2c1 [12b, Methyl 6-(3-(4-(3-(((2R,3S,4R,5R)-5-(6-Amino-9H-purin-9-yl)-3,4-dihydroxytetrahydrofuran-2-yl)methyl)guanidino)butyl)ureido)-4-hydroxy-2-naphthoate]
